These results are taken from patent US20230183193A1, “4-DIFLUOROMETHYL BENZOYL AMIDES WITH HERBICIDAL ACTION” (BAYER CROPSCIENCE AKTIENGESELLSCHAFT, priority 2017, published 2023).

What all share (assay type): in vivo
Assay [1] relates to Abutilon theophrasti. Description: Pre-emergence herbicidal action, ABUTH. The note with it: dosage 320 g/ha, scored visually after 3 weeks vs untreated controls. In outline: (§1)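 Weed seeds were laid out in sandy loam and covered with soil, then the soil surface was treated with an aqueous suspension or emulsion of the formulated compound containing 0.2% wetting agent. Pots stayed in the greenhouse for 3 weeks before damage was rated visually against untreated plants.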

In assay [2] the test system is Alopecurus myosuroides. Kind of assay: Pre-emergence herbicidal action, ALOMY. The settings on record: dosage 320 g/ha, scored visually after 3 weeks vs untreated controls. A digest of the protocol:
as §1

In assay [3] the test system is Amaranthus retroflexus. Description: Pre-emergence herbicidal action, AMARE. The settings on record: dosage 320 g/ha, scored visually after 3 weeks vs untreated controls. In outline:
as §1

Assay [4] relates to Avena fatua. Kind of assay: Pre-emergence herbicidal action, AVEFA. The settings on record: dosage 320 g/ha, scored visually after 3 weeks vs untreated controls. In outline: as §1
The test system of assay [5] is Cyperus serotinus. Description: Pre-emergence herbicidal action, CYPES. The note with it: dosage 320 g/ha, scored visually after 3 weeks vs untreated controls. A digest of the protocol: as §1
Assay [6] relates to Matricaria inodora. Kind of assay: Pre-emergence herbicidal action, MATIN. The settings on record: dosage 320 g/ha, scored visually after 3 weeks vs untreated controls. In outline: as §1
Assay [7] has as its system Setaria viridis. Kind of assay: Pre-emergence herbicidal action, SETVI. The settings on record: dosage 320 g/ha, scored visually after 3 weeks vs untreated controls. A digest of the protocol:
as §1

Assay [8] deals with Stellaria media. Description: Pre-emergence herbicidal action, STEME. The note with it: dosage 320 g/ha, scored visually after 3 weeks vs untreated controls. A digest of the protocol: as §1
The test system of assay [9] is Viola tricolor. Description: Pre-emergence herbicidal action, VIOTR. The settings on record: dosage 320 g/ha, scored visually after 3 weeks vs untreated controls. A digest of the protocol:
as §1

Assay [10] relates to Abutilon theophrasti. Kind of assay: Post-emergence herbicidal action, ABUTH. The settings on record: 80 g/ha, Table D. In outline:
(§2)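 Herbicidal effect is rated visually as percent versus untreated plants (100% = dead, 0% = like control) about 3 weeks after spraying. Plants were sown in sandy loam in the greenhouse and sprayed on green parts at the one-leaf stage, 2 to 3 weeks post-sowing.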

The subject of assay [11] is Alopecurus myosuroides. Description: Post-emergence herbicidal action, ALOMY. The settings on record: 80 g/ha, Table C. In outline:
as §2

The test system of assay [12] is Amaranthus retroflexus. Kind of assay: Post-emergence herbicidal action, AMARE. The settings on record: 80 g/ha, Table D. In outline: as §2
Assay [13] concerns Avena fatua. Kind of assay: Post-emergence herbicidal action, AVEFA. The note with it: 80 g/ha, Table C. In outline:
as §2

For assay [14], the system named is Pharbitis purpureum. Kind of assay: Post-emergence herbicidal action, PHBPU. The settings on record: 80 g/ha, Table D. A digest of the protocol:
as §2

Assay [15] relates to Setaria viridis. Kind of assay: Post-emergence herbicidal action, SETVI. The settings on record: 80 g/ha, Table C. A digest of the protocol: as §2
Assay [16] relates to Stellaria media. Description: Post-emergence herbicidal action, STEME. The settings on record: 80 g/ha, Table D. In outline: as §2
The test system of assay [17] is Viola tricolor. Description: Post-emergence herbicidal action, VIOTR. The note with it: 80 g/ha, Table D. A digest of the protocol: as §2
The test system of assay [18] is ECHCG. Description: Post-emergence herbicidal action, ECHCG. The note with it: 80 g/ha, Table C. A digest of the protocol: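 Weed and crop plants grown in sandy loam in the greenhouse, treated at the one-leaf stage 2–3 weeks after sowing. Damage scored visually after about 3 weeks vs untreated controls (0% = control, 100% = dead).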

For `Cn1nnnc1NC(=O)c1ccc(C(F)F)c([S+](C)[O-])c1I` (stereo not drawn) [Example 1-74], the “herbicidal activity ABUTH” value in [1] and in assay [10] was 100% each time. For the same compound, the “herbicidal activity ALOMY” value is on record as 100% in [2] and 90% in assay [11]. In addition, the “herbicidal activity AMARE” value in [3] and in [12] was 100% each time. For the same compound, the “herbicidal activity AVEFA” value in [4] is recorded as 100%; in assay [13], 90%. Besides, in assay [5], the “herbicidal activity CYPES” value worked out at 100%. The “herbicidal activity MATIN” value in [6] is given as 100%. The “herbicidal activity SETVI” value in assay [7] and in [15] was 100% each time. Further, the “Herbicidal activity STEME” value in assay [8] and in assay [16] was 100% in each case. Further, the “herbicidal activity VIOTR” value in assay [9] and in [17] was 100% each time. Besides, the “Herbicidal activity PHBPU” value in assay [14] was 100%. For the same compound, the “Herbicidal activity ECHCG” value in [18] is 90%.
In the case of `CCSc1c(C(F)F)ccc(C(=O)Nc2nnnn2C)c1F` [Example 1-40], the “herbicidal activity ABUTH” value in assay [1] and in assay [10] was 100% each time. The results for the “herbicidal activity ALOMY” value in [2] and in [11] were 100% and 90%, respectively. The “herbicidal activity AMARE” value in assay [3] and in assay [12] was 100% in each case. For the same compound, the “herbicidal activity AVEFA” value in assay [4] is listed as 90%; in [13], 80%. In addition, in [5], the “herbicidal activity CYPES” value is on record as 100%. In assay [6], the “herbicidal activity MATIN” value was 100%. Moreover, the “herbicidal activity SETVI” value in [7] and in assay [15] was 100% in each case. Moreover, the “Herbicidal activity STEME” value in assay [8] is listed as 100%; in assay [16], 90%. In addition, the “herbicidal activity VIOTR” value is 100% in assay [9] and 90% in assay [17]. In addition, the “Herbicidal activity PHBPU” value in assay [14] is on record as 100%. Also, the “Herbicidal activity ECHCG” value in [18] turned out to be 100%.
With `CC[S+]([O-])c1c(C(F)F)ccc(C(=O)Nc2nnnn2C)c1Br` (stereo not drawn) [Example 1-65], the “herbicidal activity ABUTH” value in [1] and in [10] was 100% each time. Besides, the “herbicidal activity ALOMY” value in [2] and in assay [11] was 100% in each case. The “herbicidal activity AMARE” value in [3] and in [12] was 100% throughout. In addition, the “herbicidal activity AVEFA” value in assay [4] and in assay [13] was 100% throughout. For the same compound, the “herbicidal activity CYPES” value in [5] worked out at 90%. Moreover, in assay [6], the “herbicidal activity MATIN” value worked out at 100%. Also, the “herbicidal activity SETVI” value in assay [7] and in assay [15] was 100% throughout. Further, the “Herbicidal activity STEME” value in assay [8] and in [16] was 100% each time. The “herbicidal activity VIOTR” value in assay [9] and in assay [17] was 100% each time. Further, in [14], the “Herbicidal activity PHBPU” value was 100%. The “Herbicidal activity ECHCG” value in [18] stood at 100%.
With `CCS(=O)(=O)c1c(C(F)F)ccc(C(=O)Nc2nonc2Cl)c1C` [Example 6-6], the entries for the “herbicidal activity ABUTH” value in assay [1] and in assay [10] were 100% and 80%, respectively. Moreover, the results for the “herbicidal activity ALOMY” value in assay [2] and in assay [11] were 90% and 80%, respectively. The “herbicidal activity AMARE” value in [3] came out at 90%; in [12], 80%. Also, the “herbicidal activity AVEFA” value in assay [4] was 90%; in assay [13], 80%. Further, the “herbicidal activity CYPES” value in assay [5] amounted to 80%. The “herbicidal activity MATIN” value in assay [6] is recorded as 100%. Also, the “herbicidal activity SETVI” value is reported as 100% in [7] and 90% in assay [15]. Besides, the “Herbicidal activity STEME” value in assay [8] came out at 90%; in [16], 100%. Also, the “herbicidal activity VIOTR” value in assay [9] and in assay [17] was 100% throughout. In assay [14], the “Herbicidal activity PHBPU” value came out at 100%. Further, the “Herbicidal activity ECHCG” value in [18] is recorded as 90%.
As to `Cn1nnnc1NC(=O)c1ccc(C(F)F)c([S+](C)[O-])c1Br` (stereo not drawn) [Example 1-62], the “herbicidal activity ABUTH” value in [1] and in assay [10] was 100% each time. Further, the “herbicidal activity ALOMY” value in assay [2] and in [11] was 100% throughout. Further, the “herbicidal activity AMARE” value in assay [3] and in assay [12] was 100% throughout. Also, the “herbicidal activity AVEFA” value in assay [4] and in assay [13] was 100% in each case. Also, the “herbicidal activity CYPES” value in assay [5] is 100%. The “herbicidal activity MATIN” value in assay [6] amounted to 100%. For the same compound, the “herbicidal activity SETVI” value in [7] and in assay [15] was 100% throughout. The “Herbicidal activity STEME” value in [8] and in [16] was 100% in each case. For the same compound, the “herbicidal activity VIOTR” value in assay [9] and in assay [17] was 100% throughout. Also, the “Herbicidal activity PHBPU” value in assay [14] turned out to be 100%. Moreover, the “Herbicidal activity ECHCG” value in [18] was found to be 100%.
In the case of `CCc1c(C(=O)Nc2nnnn2C)ccc(C(F)F)c1[S+](C)[O-]` (stereo not drawn) [Example 1-14], the “herbicidal activity ABUTH” value in [1] and in assay [10] was 100% throughout. In addition, the figures for the “herbicidal activity ALOMY” value in [2] and in [11] were 100% and 90%, respectively. For the same compound, the “herbicidal activity AMARE” value in assay [3] stood at 100%; in [12], 90%. The “herbicidal activity AVEFA” value was determined as 100% in assay [4] and 90% in [13]. For the same compound, the “herbicidal activity CYPES” value in assay [5] is given as 100%. Besides, the “herbicidal activity MATIN” value in assay [6] was 100%. Further, the “herbicidal activity SETVI” value in [7] and in assay [15] was 100% throughout. Also, the “Herbicidal activity STEME” value in [8] and in assay [16] was 100% each time. For the same compound, the “herbicidal activity VIOTR” value in assay [9] was determined as 100%; in assay [17], 90%. The “Herbicidal activity PHBPU” value in assay [14] amounted to 90%. Further, the “Herbicidal activity ECHCG” value in assay [18] worked out at 100%.
As to `CCn1nnnc1NC(=O)c1ccc(C(F)F)c(SC)c1C1CC1` [Example 2-25], the “herbicidal activity ABUTH” value in [1] and in assay [10] was 100% in each case. Also, the “herbicidal activity ALOMY” value in [2] and in assay [11] was 100% in each case. Further, the “herbicidal activity AMARE” value in assay [3] and in [12] was 100% throughout. For the same compound, the “herbicidal activity AVEFA” value in assay [4] and in assay [13] was 100% in each case. Moreover, the “herbicidal activity CYPES” value in [5] amounted to 100%. Moreover, the “herbicidal activity MATIN” value in assay [6] was found to be 100%. Moreover, the “herbicidal activity SETVI” value in assay [7] and in assay [15] was 100% in each case. Further, the “Herbicidal activity STEME” value in assay [8] and in assay [16] was 100% each time. For the same compound, the “herbicidal activity VIOTR” value in assay [9] and in assay [17] was 100% in each case. Also, in [14], the “Herbicidal activity PHBPU” value is 100%. Moreover, the “Herbicidal activity ECHCG” value in [18] is 100%.
As for `CSc1c(C(F)F)ccc(C(=O)Nc2nnc(C)o2)c1Cl` [Example 7-47], the figures for the “herbicidal activity ABUTH” value in assay [1] and in [10] were 100% and 90%, respectively. The “herbicidal activity ALOMY” value was determined as 90% in assay [2] and 80% in [11]. Besides, the results for the “herbicidal activity AMARE” value in assay [3] and in assay [12] were 100% and 90%, respectively. Moreover, the “herbicidal activity AVEFA” value worked out at 90% in assay [4] and 100% in assay [13]. Further, in [5], the “herbicidal activity CYPES” value is given as 80%. The “herbicidal activity MATIN” value in assay [6] was found to be 100%. Further, the “herbicidal activity SETVI” value in assay [7] and in assay [15] was 100% throughout. Further, the “Herbicidal activity STEME” value was 90% in assay [8] and 100% in assay [16]. Besides, the “herbicidal activity VIOTR” value in [9] and in assay [17] was 100% throughout. Also, the “Herbicidal activity PHBPU” value in [14] worked out at 90%. For the same compound, the “Herbicidal activity ECHCG” value in [18] came out at 100%.
